Results as given in publication PMC10142799, “Synthesis, In Silico and In Vitro Characterization of Novel N,N-Substituted Pyrazolopyrimidine Acetamide Derivatives for the 18KDa Translocator Protein (TSPO)” (Pharmaceuticals, 2023).
Several values for one entry are separate records, joined by “and”; a condition that tells them apart may be missing. Equal entries are not always repeated. Where two headings read alike, the source gives them in different places.

How the values were obtained:
TSPO = biological target: T1, TSPO (Homo sapiens, UniProt P30536); assay: In vitro TSPO binding assay, competition with [3H]PK11195 in membrane of human leukocytes
T1 construct: from tissue; host or cells: isolated human leukocytes (membranes)
T1 sequence (P30536 whole entry): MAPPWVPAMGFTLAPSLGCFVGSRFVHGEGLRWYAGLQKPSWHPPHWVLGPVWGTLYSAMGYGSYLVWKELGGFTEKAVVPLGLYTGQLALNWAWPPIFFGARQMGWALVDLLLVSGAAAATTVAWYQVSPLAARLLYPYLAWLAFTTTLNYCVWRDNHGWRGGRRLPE

[1] = In vitro cytotoxicity (MTT assay) on L-929 cells; type: cell-based, mouse; conditions: mouse, L-929 mouse fibroblast cells, L-929, 24 h, MTT, read-out: Cell viability
Method: (§1) Five concentrations of each compound dissolved in 2% of DMSO in culture media (50 μL) were introduced into cell media (96-well plate). The cell cultures treated with ligands were incubated 24 h, and then the media were removed. The cell crudes were measured at 570 nm and 650 nm using a MTT reagent. All procedures and reagents followed ISO 10993-5 and ISO 10993-12.
(§2) 929, mouse fibroblast cells) were cultured in a 96 well plate and treated with 50 […]
(§3) concentration. After incubation at 37 ° C for 24 hours under CO […]
(§4) fluid, the treated culture medium was removed and the absorbance of each samples were measured at 570 and 650 nm using MTT reagent.
(§5) Blank was administered with only 50uL of cell incubation media. As a control, a 50 […]
(§6) n media was administered.
(§7) MTT assay followed ISO 10993 […]
(§8) values of cell viability for GMA 10, GMA 11, GMA 15, DPA

[2] = system: L-929 (mouse fibroblast cells); assay: In vitro cytotoxicity (MTT assay) on L-929 cells; type: cell-based; conditions: Mus musculus, read-out: IC50 values of cell viability
Method: as §1, §2, §3, §4, §5, §6, §7, §8

[3] = L929, L-929, 24 h, MTT, same values given in μM

## C#CCN(CC#C)C(=O)Cc1c(-c2ccc(F)cc2)nn2c(CC)cc(CC)nc12 [GMA 13, 2-(5,7-diethyl-2-(4-fluorophenyl)pyrazolo [1,5-a]pyrimidin-3-yl)-N,N-di(prop-2-yn-1-yl) acetamide]
TSPO
  Ki: 0.9 nM

## CCc1cc(CC)n2nc(-c3ccc(F)cc3)c(CC(=O)N(CCOC)CCOC)c2n1 [GMA 12, 2-(5,7-Diethyl-2-(4-fluorophenyl)pyrazolo [1,5-a]pyrimidin-3-yl)-N,N-bis(2-methoxyethyl) acetamide]
TSPO
  Ki: 25.4 nM

## CCc1cc(CC)n2nc(-c3ccc(F)cc3)c(CC(=O)N(CC)C(C)C)c2n1 [GMA 9, 2-(5,7-Diethyl-2-(4-fluorophenyl)pyrazolo [1,5-a]pyrimidin-3-yl)-N-ethyl-N-isopropyl acetamide]
TSPO
  Ki: 13.3 nM

## CCc1cc(CC)n2nc(-c3ccc(F)cc3)c(CC(=O)N(CC)CC)c2n1 [GMA 8, 2-(5,7-diethyl-2-(4-fluorophenyl)pyrazolo [1,5-a]pyrimidin-3-yl)-N,N-diethylacetamide]
TSPO
  Ki: 8.79 nM

## CCN(CC)C(=O)Cc1c(-c2ccc(OCCF)cc2)nn2c(C)cc(C)nc12 [DPA-714, reference compound]
TSPO
  Ki: 3.66 nM
[1]
  viability at 24 h, 3.125 μg/mL: 51 ± 4.08%
  viability at 24 h, 6.25 μg/mL: 47.3 ± 3.44%
  viability at 24 h, 12.5 μg/mL: 45.2 ± 1.86%
  viability at 24 h, 25 μg/mL: 32.1 ± 2.54%
  viability at 24 h, 50 μg/mL: 11.2 ± 1.94%
[2]; L929, L-929, 24 h, MTT
  IC50: 18.6 mg/L
[2]; [3]
  IC50: 46.7 µM

## CCC(C)N(C)C(=O)c1cc2ccccc2c(-c2ccccc2Cl)n1 (centres unmarked) [PK11195, reference compound]
[1]
  viability at 24 h, 3.125 μg/mL: 57.8 ± 5.22%
  viability at 24 h, 6.25 μg/mL: 49.08 ± 0.43%
  viability at 24 h, 12.5 μg/mL: 48.18 ± 0.43%
  viability at 24 h, 25 μg/mL: 38.3 ± 4.8%
  viability at 24 h, 50 μg/mL: 32.8 ± 3.14%
[2]; L929, 24 h
  IC50: 22.1 µg/mL and 62.7 µM

## CCc1cc(CC)n2nc(-c3ccc(F)cc3)c(CC(=O)N(CC)Cc3ccccc3OC)c2n1 [GMA 16, 2-(5,7-diethyl-2-(4-fluorophenyl)pyrazolo [1,5-a]pyrimidin-3-yl)-N-ethyl-N-(2-methoxybenzyl)acetamide]
TSPO
  Ki: 0.49 nM

## CCc1cc(CC)n2nc(-c3ccc(F)cc3)c(CC(=O)N(C)CC)c2n1 [GMA 7, 2-(5,7-diethyl-2-(4-fluorophenyl)pyrazolo [1,5-a]pyrimidin-3-yl)-N-ethyl-N-methylacetamide]
TSPO
  Ki: 17.1 nM

## CCc1cc(CC)n2nc(-c3ccc(F)cc3)c(CC(=O)N(CC)c3ccccc3)c2n1 [GMA 15, 2-(5,7-diethyl-2-(4-fluorophenyl)pyrazolo [1,5-a]pyrimidin-3-yl)-N-ethyl-N-phenylacetamide]
TSPO
  Ki: 0.06 nM
TSPO; ratio of Ki values
  fold enhancement in affinity compared to DPA-714: 61 fold
  fold higher affinity compared to PK11195: 22 fold
[1]
  viability at 24 h, 3.125 μg/mL: 57.9 ± 4.04%
  viability at 24 h, 6.25 μg/mL: 50.6 ± 2.39%
  viability at 24 h, 12.5 μg/mL: 26 ± 8.01%
  viability at 24 h, 25 μg/mL: 9.6 ± 1.6%
  viability at 24 h, 50 μg/mL: 6.6 ± 2.15%
[2]; L929, L-929, 24 h, MTT
  IC50: 9.73 mg/L
[2]; [3]
  IC50: 22.6 µM

## CCCN(CCC)C(=O)Cc1c(-c2ccc(F)cc2)nn2c(CC)cc(CC)nc12 [GMA 10, 2-(5,7-diethyl-2-(4-fluorophenyl)pyrazolo [1,5-a]pyrimidin-3-yl)-N,N-dipropylacetamide]
TSPO
  Ki: 0.18 nM
[1]
  viability at 24 h, 3.125 μg/mL: 64.5 ± 1.19%
  viability at 24 h, 6.25 μg/mL: 53.4 ± 2.02%
  viability at 24 h, 12.5 μg/mL: 39.8 ± 0.74%
  viability at 24 h, 25 μg/mL: 24.6 ± 3.13%
  viability at 24 h, 50 μg/mL: 19.8 ± 1.19%
[2]; L929, L-929, 24 h, MTT
  IC50: 15.2 mg/L
[2]; [3]
  IC50: 37.1 µM

## CCc1cc(CC)n2nc(-c3ccc(F)cc3)c(CC(=O)N(CC)Cc3cc(OC)ccc3OC)c2n1 [GMA 17, 2-(5,7-diethyl-2-(4-fluorophenyl)pyrazolo [1,5-a]pyrimidin-3-yl)-N-(2,5-dimethoxybenzyl)-N-ethylacetamide]
TSPO
  Ki: 0.54 nM

## CCc1cc(CC)n2nc(-c3ccc(F)cc3)c(CC(=O)N(CC)CCOC)c2n1 [GMA 11, 2-(5,7-diethyl-2-(4-fluorophenyl)pyrazolo [1,5-a]pyrimidin-3-yl)-N-ethyl-N-(2-methoxyethyl) acetamide]
TSPO
  Ki: 0.19 nM
[1]
  viability at 24 h, 3.125 μg/mL: 61.7 ± 0.71%
  viability at 24 h, 6.25 μg/mL: 58.3 ± 3.12%
  viability at 24 h, 12.5 μg/mL: 39.5 ± 0.63%
  viability at 24 h, 25 μg/mL: 33.5 ± 2.28%
  viability at 24 h, 50 μg/mL: 28.9 ± 1.12%
[2]; L929, L-929, 24 h, MTT
  IC50: 36.2 mg/L
[2]; [3]
  IC50: 87.8 µM
